Laboratory results from patent US7273861B2, “Non-nucleoside reverse transcriptase inhibitors” (Boehringer Ingelheim (Canada) Ltd., priority 2002, dated 2007).
Read-outs that look alike come from different tables or passages of the source.

Tests used:
HIV-1 RT K103N/Y181C = target: T1, HIV-1 RT K103N/Y181C (Human immunodeficiency virus type 1 group M subtype B, UniProt P03366, K702N/Y780C); assay: Reverse Transcriptase (RT) assay, double mutant K103N/Y181C; type: biochemical
T1 construct: mutations that occur in the reverse transcriptase segment of the pol gene
Source text: (§1) Based upon testing of these compounds, as described below, it is known that they inhibit the RNA-dependent DNA polymerase activity of HIV-1 RT. Utilizing the Reverse Transcriptase (RT) Assay described below, compounds can be tested for their ability to inhibit the RNA-dependent DNA polymerase activity of HIV-1 RT. Certain specific compounds described in the Examples which appear below, were so tested. The results of this testing appear in Table 2 as IC50 (nM) and EC50 (nM).
(§2) The assays are as described in WO 01/96338A1, the contents of which are hereby incorporated herein. The results are listed in Table 2 as IC50(nM) and EC50 (nM).

[1] = tested on: wild type HIV-1 replication; assay: Cell-based assay, wild type HIV
Source text: as §2

HIV-1 RT WT = target: T2, HIV-1 RT WT (Human immunodeficiency virus type 1 group M subtype B, UniProt P03366); assay: Reverse Transcriptase (RT) assay, wild type; type: biochemical
T2 construct: mutations that occur in the reverse transcriptase segment of the pol gene
Source text: as §1, §2

Compound: 4′-{(9H-imidazo[1,2-d]dipyrido[2,3-b:3′,2′-f][1,4]diazepin-12-yl)ethoxy}-3′-methyl-[1,1′-biphenyl]4-acetic acid [Entry 119]
- IC50 (HIV-1 RT K103N/Y181C; double mutant K103N/Y181C RT, read-out: IC50 K103N/Y181C): < 50 nM
- EC50 [1]: < 10 nM
- IC50 (HIV-1 RT WT; wild type RT, read-out: IC50 WT): < 50 nM

Compound: CCN1c2ncc(CCOc3cccc4c3CNC(=O)N4)cc2-c2nc(C)cn2-c2cccnc21 [Entry 101]
- IC50 (HIV-1 RT K103N/Y181C): > 100 nM
- IC50 (HIV-1 RT WT): < 50 nM

Compound: CCN1c2ncc(CCOc3cccc4c3C=CS(=O)(=O)N4C)cc2-c2ncc(C)n2-c2cccnc21 [Entry 102]
- IC50 (HIV-1 RT K103N/Y181C): < 50 nM
- EC50 ([1]; Human immunodeficiency virus 1): < 10 nM
- IC50 (HIV-1 RT WT): < 50 nM

Compound: CCN1c2ncc(CCOc3cccc4c3CNC4=O)cc2-c2ncc(C)n2-c2cccnc21 [Entry 103]
- IC50 (HIV-1 RT K103N/Y181C): > 100 nM
- EC50 ([1]; Human immunodeficiency virus 1): < 10 nM
- IC50 (HIV-1 RT WT): < 50 nM

Compound: CCN1c2ncc(CCOc3cccc4c3CCS(=O)(=O)N4)cc2-c2ncc(C)n2-c2cccnc21 [Entry 104]
- IC50 (HIV-1 RT K103N/Y181C): 50 to 100 nM
- IC50 (HIV-1 RT WT): < 50 nM

Compound: CCN1c2ncc(CCOc3cccc4c3CNS4(=O)=O)cc2-c2ncc(C)n2-c2cccnc21 [Entry 105]
- IC50 (HIV-1 RT K103N/Y181C): < 50 nM
- IC50 (HIV-1 RT WT): < 50 nM

Compound: CCN1c2ncc(CCOc3cccc4c3COC(=O)N4)cc2-c2ncc(C)n2-c2cccnc21 [Entry 106]
- IC50 (HIV-1 RT K103N/Y181C): > 100 nM
- IC50 (HIV-1 RT WT): < 50 nM

Compound: CCN1c2ncc(CCOc3ccc4c(c3)C(C)(C)NS4(=O)=O)cc2-c2nccn2-c2c(C)ccnc21 [Entry 107]
- IC50 (HIV-1 RT K103N/Y181C): < 50 nM
- IC50 (HIV-1 RT WT): < 50 nM

Compound: CCN1c2ncc(CCOc3cccc4c3CNC(=O)N4)cc2-c2nccn2-c2c(C)ccnc21 [Entry 108]
- IC50 (HIV-1 RT K103N/Y181C): < 50 nM
- IC50 (HIV-1 RT WT): < 50 nM

Compound: CCN1c2ncc(CCOc3cccc4c3CNC(=O)N4)cc2-c2nccn2-c2cccnc21 [Entry 109]
- IC50 (HIV-1 RT K103N/Y181C): < 50 nM
- IC50 (HIV-1 RT WT): < 50 nM

Compound: CCN1c2ncc(CCOc3cccc4c3CCNC4=O)cc2-c2ncc(C)n2-c2cccnc21 [Entry 110, 9-Ethyl-3-methyl-12-{2-{(1,2,3,4-ttrahydro-1-oxo-5-isoquinolinyl)oxy}ethyl}-9H-imidazo[1,2-d]dipyrido[2,3-b:3′,2′-f][1,4]diazepine]
- IC50 (HIV-1 RT K103N/Y181C): > 100 nM
- IC50 (HIV-1 RT WT): < 50 nM

Compound: CCN1c2ncc(CCOc3cccc4c3CN(C)C(=O)N4C)cc2-c2ncc(C)n2-c2cccnc21 [Entry 111]
- IC50 (HIV-1 RT K103N/Y181C): > 100 nM
- IC50 (HIV-1 RT WT): < 50 nM

Compound: CCOC(=O)N1c2cccc(OCCc3cnc4c(c3)-c3nccn3-c3c(C)ccnc3N4CC)c2CS1(=O)=O [Entry 112]
- IC50 (HIV-1 RT K103N/Y181C): < 50 nM
- IC50 (HIV-1 RT WT): < 50 nM

Compound: CCN1c2ncc(CCOc3cccc4c3CS(=O)(=O)N4)cc2-c2nccn2-c2c(C)ccnc21 [Entry 113]
- IC50 (HIV-1 RT K103N/Y181C): 50 to 100 nM
- IC50 (HIV-1 RT WT): < 50 nM

Compound: CCN1c2ncc(CCOc3cccc4c3CS(=O)(=O)N4CC(=O)OC(C)(C)C)cc2-c2nccn2-c2c(C)ccnc21 [Entry 114]
- IC50 (HIV-1 RT K103N/Y181C): 50 to 100 nM
- IC50 (HIV-1 RT WT): < 50 nM

Compound: CCN1c2ncc(CCOc3cccc4c3CS(=O)(=O)N4CC(=O)O)cc2-c2nccn2-c2c(C)ccnc21 [Entry 115]
- IC50 (HIV-1 RT K103N/Y181C): 50 to 100 nM
- EC50 ([1]; Human immunodeficiency virus 1): > 50 nM
- IC50 (HIV-1 RT WT): < 50 nM

Compound: CCN1c2ncc(CCOc3ccc(C(=O)O)cc3C)cc2-c2nccn2-c2cccnc21 [Entry 117]
- IC50 (HIV-1 RT K103N/Y181C): > 100 nM
- EC50 ([1]; Human immunodeficiency virus 1): < 10 nM
- IC50 (HIV-1 RT WT): < 50 nM

Compound: CCN1c2ncc(CCOc3ccc(C(=O)O)cc3C)cc2-c2ncc(C)n2-c2cccnc21 [Entry 118]
- IC50 (HIV-1 RT K103N/Y181C): < 50 nM
- IC50 (HIV-1 RT WT): < 50 nM

Compound: CCN1c2ncc(CCOc3ccc(-c4ccc(CC(=O)O)cc4)cc3C)cc2-c2ncc(C)n2-c2cccnc21 [Entry 120]
- IC50 (HIV-1 RT K103N/Y181C): 50 to 100 nM
- IC50 (HIV-1 RT WT): < 50 nM

Compound: CCN1c2ncc(CCOc3ccc(C(=O)O)c4c3CCCC4)cc2-c2ncc(C)n2-c2cccnc21 [Entry 121]
- IC50 (HIV-1 RT K103N/Y181C): > 100 nM
- IC50 (HIV-1 RT WT): < 50 nM

Compound: CCN1c2ncc(CCOc3ccc(C(=O)O)c4ccccc34)cc2-c2ncc(C)n2-c2cccnc21 [Entry 122]
- IC50 (HIV-1 RT K103N/Y181C): > 100 nM
- IC50 (HIV-1 RT WT): < 50 nM
